Source: article PMC11212140, “Molecular Bidents with Two Electrophilic Warheads as a New Pharmacological Modality” (ACS Central Science, 2024)

Columns and labels:
Assay in all cases: KiNativ profiling in H3255 cells
Assay type in all cases: cell-based, human
ABL, ARG = settings: 2.5 µM
Procedure, shortened: (§1)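 Profiling used the KiNativ platform at ActivX Biosciences. Samples came from H3255 cells given a two-hour exposure to vehicle (DMSO) or the compound ZNL-0056 at 2.5 μM, then collected cold with inhibitor cocktail and frozen immediately.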

AurB = test system: T1, AurB; settings: 2.5 µM; Lys1; SHFIVALKVLFK
T1 construct: purchased ActivX Biosciences (KiNativ)
Procedure, shortened: as §1

BRAF, BRAF V600E = test system: T2, BRAF, BRAF V600E; settings: 2.5 µM; Lys2; DLKSNNIFLHEDLTVK
T2 construct: purchased ActivX Biosciences (KiNativ)
Procedure, shortened: as §1

BRAF, RAF1 = settings: 2.5 µM; Activation Loop; IGDFGLATVKSR
Procedure, shortened: as §1

CDK6 = test system: T3, CDK6; settings: 2.5 µM; Lys2; DLKPQNILVTSSGQIK
T3 construct: purchased ActivX Biosciences (KiNativ)
Procedure, shortened: as §1

CK1a = test system: T4, CK1a; settings: 2.5 µM; Lys2; DIKPDNFLMGIGR
T4 construct: purchased ActivX Biosciences (KiNativ)
Procedure, shortened: as §1

CK1g1 = test system: T5, CK1g1; settings: 2.5 µM; Lys2; DVKPENFLIGR
T5 construct: purchased ActivX Biosciences (KiNativ)
Procedure, shortened: as §1

CLK2 = test system: T6, CLK2; settings: 2.5 µM; Lys2; LTHTDLKPENILFVNSDYELTYNLEK
T6 construct: purchased ActivX Biosciences (KiNativ)
Procedure, shortened: as §1

CaMK1d = test system: T7, CaMK1d; settings: 2.5 µM
T7 construct: purchased ActivX Biosciences (KiNativ)
Procedure, shortened: as §1

EphA2 = test system: T8, EphA2; settings: 2.5 µM; Activation Loop; VLEDDPEATYTTSGGKIPIR
T8 construct: purchased ActivX Biosciences (KiNativ)
Procedure, shortened: as §1

FAK = test system: T9, FAK; settings: 2.5 µM
T9 construct: purchased ActivX Biosciences (KiNativ)
Procedure, shortened: as §1

FER = test system: T10, FER; settings: 2.5 µM
T10 construct: purchased ActivX Biosciences (KiNativ)
Procedure, shortened: as §1

MAP2K1, MAP2K2 = settings: 2.5 µM
Procedure, shortened: as §1

MAP2K1 = test system: T11, MAP2K1; settings: 2.5 µM; Lys2; IMHRDVKPSNILVNSR
T11 construct: purchased ActivX Biosciences (KiNativ)
Procedure, shortened: as §1

MAP2K4 = test system: T12, MAP2K4; settings: 2.5 µM
T12 construct: purchased ActivX Biosciences (KiNativ)
Procedure, shortened: as §1

MAP3K1 = test system: T13, MAP3K1; settings: 2.5 µM; Lys2; DVKGANLLIDSTGQR
T13 construct: purchased ActivX Biosciences (KiNativ)
Procedure, shortened: as §1

MAP3K2, MAP3K3 = settings: 2.5 µM; Lys2; DIKGANILR
Procedure, shortened: as §1

MARK2, MARK3 = settings: 2.5 µM; Lys2; DLKAENLLLDADMNIK
Procedure, shortened: as §1

MER, TYRO3 = settings: 2.5 µM; Activation Loop; KIYSGDYYR
Procedure, shortened: as §1

MLK3 = test system: T14, MLK3; settings: 2.5 µM; Lys2; DLKSNNILLLQPIESDDMEHK
T14 construct: purchased ActivX Biosciences (KiNativ)
Procedure, shortened: as §1

NDR1, NDR2 = settings: 2.5 µM; Activation Loop; LSDFGLCTGLKK
Procedure, shortened: as §1

PHKg2 = test system: T15, PHKg2; settings: 2.5 µM; Lys1; ATGHEFAVKIMEVTAER
T15 construct: purchased ActivX Biosciences (KiNativ)
Procedure, shortened: as §1

PIK3C2B = test system: T16, PIK3C2B; settings: 2.5 µM; ATP; VIFKCGDDLRQDMLTLQMIR
T16 construct: purchased ActivX Biosciences (KiNativ)
Procedure, shortened: as §1

SGK = test system: T17, SGK; settings: 2.5 µM
T17 construct: purchased ActivX Biosciences (KiNativ)
Procedure, shortened: as §1

SRPK1 = test system: T18, SRPK1; settings: 2.5 µM; Lys2; IIHTDIKPENILLSVNEQYIR
T18 construct: purchased ActivX Biosciences (KiNativ)
Procedure, shortened: as §1

TNK1 = test system: T19, TNK1; settings: 2.5 µM; Lys1; SVPVAVKSLR
T19 construct: purchased ActivX Biosciences (KiNativ)
Procedure, shortened: as §1

ULK3 = test system: T20, ULK3; settings: 2.5 µM; Lys1; EVVAIKCVAK
T20 construct: purchased ActivX Biosciences (KiNativ)
Procedure, shortened: as §1

Wee1 = test system: T21, Wee1; settings: 2.5 µM; Lys2; YIHSMSLVHMDIKPSNIFISR
T21 construct: purchased ActivX Biosciences (KiNativ)
Procedure, shortened: as §1

Wnk1, Wnk2, Wnk3 = settings: 2.5 µM; Lys2; DLKCDNIFITGPTGSVK
Procedure, shortened: as §1

YES = test system: T22, YES; settings: 2.5 µM; Lys1; VAIKTLKPGTMMPEAFLQEAQIMK
T22 construct: purchased ActivX Biosciences (KiNativ)
Procedure, shortened: as §1

[1] = test system: ZC1/HGK, ZC2/TNIK, ZC3/MINK; settings: 2.5 µM; Lys2; DIKGQNVLLTENAEVK
Procedure, shortened: as §1

p38a = test system: T23, p38a; settings: 2.5 µM
T23 construct: purchased ActivX Biosciences (KiNativ)
Procedure, shortened: as §1

[2] = Activation Loop, LMTGDTYTAHAGAKFPIK
[3] = Lys1, CIGEGQFGDVHQGIYMSPENPALAVAIKTCK
[4] = Activation Loop, QEDGGVYSSSGLKQIPIK

For `C=CC(=O)Nc1cc(Nc2nccc(-c3cn(C)c4ccccc34)n2)c(OC)cc1N(C)CCN(C)C` [Osimertinib, osimertinib, reference compound], the Inhibition (ABL, ARG; [2]) was 8.4%, the Inhibition (ABL, ARG; Lys1, YSLTVAVKTLKEDTMEVEEFLK) was 4.3% and the Inhibition (AurB) was 9.9%. For the same molecule, the Inhibition (BRAF, BRAF V600E) was -9.2%, the Inhibition (BRAF, RAF1) was -21.1% and the Inhibition (CDK6) was -8.5%. For the same molecule, the Inhibition (CK1a) was 12.6%, the Inhibition (CK1g1) was 7.6% and the Inhibition (CLK2) was 26.6%. For the same molecule, the Inhibition (CaMK1d; Lys1, LFAVKCIPK) was -14.3%, the Inhibition (CaMK1d; Lys2, DLKPENLLYYSQDEESK) was -8.2% and the Inhibition (EphA2) was 18.1%. The Inhibition (FAK; Activation Loop, YMEDSTYYKASK) was -25.6%, the Inhibition (FAK; [3]) was 16.5% and the Inhibition (FER; [4]) was 28.7%. It also gave an Inhibition (FER; Lys1, TSVAVKTCKEDLPQELK) of -15.4%, an Inhibition (MAP2K1, MAP2K2; Lys1, KLIHLEIKPAIR) of -64.7% and an Inhibition (MAP2K1, MAP2K2; Lys2, DVKPSNILVNSR) of -10.5%. The Inhibition (MAP2K1) was -20.8%, the Inhibition (MAP2K4; Lys1, MVHKPSGQIMAVKR) was 12.0% and the Inhibition (MAP2K4; Lys2, DIKPSNILLDR) was 30.7%. It also gave an Inhibition (MAP3K1) of 8.4%, an Inhibition (MAP3K2, MAP3K3) of -6.6% and an Inhibition (MARK2, MARK3) of -12.0%. For the same molecule, the Inhibition (MER, TYRO3) was 33.0%, the Inhibition (MLK3) was -1.5% and the Inhibition (NDR1, NDR2) was -22.1%. It also gave an Inhibition (PHKg2) of -24.7%, an Inhibition (PIK3C2B) of 1.3% and an Inhibition (SGK; Lys1, HKAEEVFYAVKVLQK) of 13.2%. For the same molecule, the Inhibition (SGK; Lys2, DLKPENILLDSQGHIVLTDFGLCK) was -15.1%, the Inhibition (SRPK1) was 2.2% and the Inhibition (TNK1) was 58.2%. For the same molecule, the Inhibition (ULK3) was -21.6%, the Inhibition (Wee1) was 6.4% and the Inhibition (Wnk1, Wnk2, Wnk3) was 11.9%. The Inhibition (YES) was 19.6%, the Inhibition [1] was 16.3% and the Inhibition (p38a; Lys2, DLKPSNLAVNEDCELK) was 19.9%. For the same molecule, the Inhibition (p38a; Other, QELNKTIWEVPER) was 12.6%.
`C=CC(=O)Nc1cc(C(=O)Nc2nc3cccc(C)c3n2[C@@H]2CCCCN(C(=O)C=C)C2)cs1` [ZNL-0056] was tested, and the Inhibition (ABL, ARG; [2]) was -3.8%, the Inhibition (ABL, ARG; Lys1, YSLTVAVKTLKEDTMEVEEFLK) was 17.1% and the Inhibition (AurB) was 14.4%. The Inhibition (BRAF, BRAF V600E) was 4.5%, the Inhibition (BRAF, RAF1) was -19.4% and the Inhibition (CDK6) was -27.5%. It also gave an Inhibition (CK1a) of 10.2%, an Inhibition (CK1g1) of 16.6% and an Inhibition (CLK2) of 9.5%. For the same molecule, the Inhibition (CaMK1d; Lys1, LFAVKCIPK) was 11.3%, the Inhibition (CaMK1d; Lys2, DLKPENLLYYSQDEESK) was 2.0% and the Inhibition (EphA2) was 13.2%. For the same molecule, the Inhibition (FAK; Activation Loop, YMEDSTYYKASK) was -16.1%, the Inhibition (FAK; [3]) was -40.2% and the Inhibition (FER; [4]) was -11.1%. It also gave an Inhibition (FER; Lys1, TSVAVKTCKEDLPQELK) of -6.4%, an Inhibition (MAP2K1, MAP2K2; Lys1, KLIHLEIKPAIR) of 9.8% and an Inhibition (MAP2K1, MAP2K2; Lys2, DVKPSNILVNSR) of -6.7%. For the same molecule, the Inhibition (MAP2K1) was -10.3%, the Inhibition (MAP2K4; Lys1, MVHKPSGQIMAVKR) was 5.7% and the Inhibition (MAP2K4; Lys2, DIKPSNILLDR) was 2.6%. For the same molecule, the Inhibition (MAP3K1) was -17.1%, the Inhibition (MAP3K2, MAP3K3) was -6.0% and the Inhibition (MARK2, MARK3) was 9.0%. The Inhibition (MER, TYRO3) was 2.6%, the Inhibition (MLK3) was 26.8% and the Inhibition (NDR1, NDR2) was -7.6%. It also gave an Inhibition (PHKg2) of -4.2%, an Inhibition (PIK3C2B) of -9.6% and an Inhibition (SGK; Lys1, HKAEEVFYAVKVLQK) of 12.6%. For the same molecule, the Inhibition (SGK; Lys2, DLKPENILLDSQGHIVLTDFGLCK) was 1.7%, the Inhibition (SRPK1) was 2.6% and the Inhibition (TNK1) was 8.0%. The Inhibition (ULK3) was -7.8%, the Inhibition (Wee1) was 13.4% and the Inhibition (Wnk1, Wnk2, Wnk3) was -34.6%. It also gave an Inhibition (YES) of -13.4%, an Inhibition [1] of 9.3% and an Inhibition (p38a; Lys2, DLKPSNLAVNEDCELK) of -10.4%. For the same molecule, the Inhibition (p38a; Other, QELNKTIWEVPER) was -5.0%.
